According to patent US8088822B2, “Use of fenretinide or bioactive derivatives thereof and pharmaceutical compositions comprising the same” (priority 2008, dated 2012):
Where a SMILES comes first, the peptide text is derived from it. The star is where a group is joined. Cbz = O=C(OCc1ccccc1)*

Key:
HL60 cells [1] = assay: MTT cell viability of quiescent and proliferating HL60 cells; assay type: cell-based; details: 0-10 μM, 24 and 48 h
Description: The cell viability was determined by 3-(4,5-dimethylthiazol-2-yl)-2,5-diphenyltetrazolium bromide (MTT) assay.
As previous case (Example 1), HL60 cells were chosen as serum deprived quiescent leukemic cell model obtained when incubated in RPMI 1640 without serum for 48 h. Serum-deprived quiescent leukemic cells and proliferating leukemic cells were then cultured in media containing 0.5% FBS, and treated with 0-10 μM 4-oxo-N-(4-hydroxyphenyl)retinamide for 24 and 48 h, respectively. The cell viability was test by MTT assay.

[2] = tested on: CD34+CD38+ AML progenitor cells; assay: Apoptosis of AML progenitor cells; assay type: cell-based, human; details: 1-7.5 μM, 48 h
Description: (§1) Primitive AML and CML subpopulations (CD34^+ cells) were identified using CD34-PE in combination with CD38-APC, and followed by double-labeling with 7AAD and Annexin V antibodies for apoptosis assessment. The CD34^+ cells were first stained with antibodies against the surface markers CD34-PE and CD38-APC (Beckman Coulter, Fullerton, Calif.) and incubated at room temperature for 15 minutes. Cells were then washed with cold PBS and resuspended in 200 μL annexin V 1×binding buffer (10 mM HEPES/NaOH, pH 7.4, 140 mM NaCl, 2.5 mM CaCl2), 5 μL AnnexinV-FITC (BD Phanningen, San Diego, Calif.) and 7-aminoactinomycin (7-AAD, 0.25 mg/mL) (Molecular Probes, Eugene, Oreg.). Subsequently, the samples were incubated at room temperature for 15 minutes and analyzed by flow cytometry.
(§2) To determine whether 4-oxo-N-(4-hydroxyphenyl)retinamide like fenretinide could preferentially target primitive leukemia cells, CD34^+ cells are isolated from bone marrow specimens of AML patients and subjected to apoptosis assay upon the treatment with 1-7.5 μM 4-oxo-N-(4-hydroxyphenyl)retinamide for 48 h.

[3] = tested on: CD34+CD38− AML stem cells; assay: Apoptosis of AML stem cells; assay type: cell-based, human; details: 1-7.5 μM, 48 h
Description: as §1, §2

HL60 cells [4] = assay: Mitochondrial transmembrane potential (MTP) assay, Rh123/PI, HL60 cells; assay type: cell-based; details: quiescent HL60 cells; 20 μM IDA or 5 μM Ara-C
Description: (§3) HL60 cells were cultured in RPMI 1640 supplemented (i) with or (ii) without 10% fetal bovine serum to obtain proliferating and quiescent leukemia cells respectively. Serum-deprived quiescent leukemic cells and proliferating leukemic cells were then cultured in media containing 0.5% FBS, and treated with 1 μM and 2.5 μM fenretinide, and also with chemotherapeutics as controls, 20 μM idarubicin (IDA) and 5 μM cytarabine (Ara-C).
(§4) To examine the effects of fenretinide on proliferating and quiescent leukemia cells, HL60 cells were chosen as serum deprived quiescent leukemic cell model obtained when incubated in RPMI 1640 without serum for 48 h, with G0/G1 phase cells (being in quiescent state) accounting up to 59.9%. Serum-deprived quiescent leukemic cells and proliferating leukemic cells were then cultured in media containing 0.5% FBS, and treated with 1 μM and 2.5 μM fenretinide, and also with chemotherapeutics as controls, 20 μM idarubicin (IDA) and 5 μM cytarabine (Ara-C). […] Fenretinide induces intracellular production of ROS, lowers mitochondrial transmembrane potential (MTP), and eventually leads to apoptosis in a variety of malignancies. We measured MTP induced by fenretinide in proliferating and quiescent HL60 cells, as examined through rhodamine 123 and propidium iodide staining and followed by flow cytometry analysis. […] We further measured intracellular ROS abundance induced by fenretinide. […] After incubation with 1 μM and 2.5 μM fenretinide for 3 h, the ROS level of proliferating cells increased by 1.77 and 2.6 fold, respectively.

U937 [5] = assay: Growth inhibition and combination index in AML cell line U937; assay type: cell-based; details: U937, single agent
Description: The combination Index (CI) was used to test the combination effect of fenretinide and Ara-C on growth inhibition in AML cell line U937. The CI was calculated according to the classic isobologram equation: CI=d1/D1+d2/D2. In this equation, D1 and D2 represent the doses of drug 1 and drug 2 alone, required to produce x % effect, and d1 and d2 are the doses of drugs 1 and 2 in combination required to produce the same effect. And CI<1, CI>1 and CI=1 represent the synergism, […], respectively.

U937 [6] = assay: Apoptosis in AML cell line U937; assay type: cell-based; details: U937, within 48 hours, alone or combined
Description: (§5) 2×10^5 cultured cells were used for evaluating apoptosis using an ApoAlert Annexin V-FITC Apoptosis Kit (BD Biosciences). Cells were washed once by PBS, resuspended in 200 μl Annexin-V binding buffer, and then stained with Annexin V-FITC 5 μl, PI 10 μl for 15 min at room temperature in the dark. Cells were subsequently analyzed by flow cytometry.
There are two observations that drive us in further exploring alternative therapeutic combinations. As illustrated in Example 6, proteasome inhibitors can potentate fenretinide-induced apoptosis in leukemia. […] The apoptosis rates were quite low when treated alone within 48 hours (nearly 5%), and the number doubled when treated by fenretinide and MG132.

HL60 cells [7] = assay: Annexin V apoptosis assay in proliferating and serum-deprived quiescent HL60 cells; assay type: cell-based; details: 20 μM IDA
Description: as §3, §5, §4

K562 = assay: Apoptosis in CML cell line K562; assay type: cell-based; details: 4 μM fenretinide, 0.25 μM imatinib, 0.1 μM MG132, alone or combined
Description: as §5

MKN45 = assay: Apoptosis in gastric tumor cell line MKN45 (Rh123/PI, FACS); assay type: cell-based; details: MKN45, 48 hours; 4 μM fenretinide, 5 μM Tet, alone or co-treatment
Description: Loss of MTP was evaluated through rhodamine 123 (Rh123) and propidium iodide (PI) staining. 2×10^5 cells were washed by PBS and incubated with 1 μg/ml Rh123 at 37° C. for 30 min. After washed by PBS, 10 μl PI was added to cells for 15 min at room temperature in the dark. Fluorescence emission at 530 nm (representing R123 retention as a function of MTP) was measured with flow cytometry.
Fenretinide induces intracellular ROS and ER stress to activate series of molecular events including apoptotic pathway and such anti-apoptotic pathways as NF-κB cascade. NF-κB can mediate the progression of inflammation-related cancer. […] Unlike fenretinide, Tet is the well-known anti-cancer and anti-inflammation drugs via inhibiting the activity of NF-κB. For example, Tet, as the main effective component of Stephenia tetrandra S Moore, has bioactivities in reversing MDR (multidrug resistance), blocking calcium ion channel and so on. […] FIGS. 19A and 19B show synergistic induction of apoptosis by fenretinide and Tet, as evaluated by Rh123/PI double stain using FACS. […] Through annexin-V/PI double staining, synergistic apoptosis profiles of fenretinide/tetrandrine co-treated MKN45 and SGC7901 cells were also observed (see FIGS. 19C and 19D).

CML CD34+ cells = assay: Colony forming assay in primary CML CD34+ cells; assay type: cell-based, human; details: 0.25 μM imatinib, 4 μM fenretinide or both, 14 days
Text: Fresh bone marrow (BM) cells were obtained from 38 patients with CML and 5 non-leukemic donors, 25 AML, 17 ALL, and 8 normal specimens with informed consent according to the Declaration of Helsinki. Approval was obtained from Institutional Review Board at the School of Medicine in Shanghai Jiao Tong University. BM mononuclear cells were isolated by Ficoll density gradient centrifugation (Shanghai Second Reagent Factory, Shanghai, China). CD34^+ Cell were selected using EasySep® Human CD34 Positive Selection kit (Stem Cell Technologies, Vancouver, BC, Canada) according to the manufacturer's instructions. […] The CD34^+ cells were cultured in a serum-free medium (StemPro 34; Gibco BRL, Gaithersburg, Md.) supplemented with growth factors (PeproTech, London, United Kingdom) (20). The growth factors consisted of GM-CSF (200 pg/mL), G-CSF (1 ng/mL); SCF (200 pg/mL); LIF (50 pg/mL), MIP-1α (200 pg/mL) and IL-6 (1 ng/mL).
A quantity of 1000 CD34^+ cells were plated in semisolid methylcellulose-based media (Methocult H4434: Stem Cell Technologies, Vancouver, BC, Canada). After incubation at 37° C. in a fully humidified atmosphere of 5% CO2 for 14 days, granulocyte macrophage-colony-forming units (CFU-GM), erythroid burst-forming units (BFU-E), granulocyte, erythrocyte and monocyte, megakaryocyte-colony-forming units (CUF-GEMM) were counted. Only clusters with >50 cells were counted as a colony.
We further performed study to examine the effects of fenretinide on colony forming in primary CML cells derived from 38 bone marrow specimens of CML patients (TABLE 1). First, CML CD34^+ Cells were isolated using EasySep® Human CD34 Positive Selection kit (Stem Cell Technologies, Vancouver, BC, Canada). Upon treated with 2 μM and 4 μM fenretinide, colony forming assays were performed respectively on granulocyte macrophage-colony-forming units (CFU-GM), erythroid burst-forming units (BFU-E), granulocyte, erythrocyte and monocyte, megakaryocyte-colony-forming units (CFU-GEMM).

patients with CML = patients with CML treated with imatinib; cited from earlier work
NB4 cells = assay: Antagonist assays, apoptosis of NB4 cells; assay type: cell-based; details: 100 μM vitamin C pre-treatment 2 hours, then 1 μM fenretinide 24 hours

CC1=C(/C=C/C(C)=C/C=C/C(C)=C/C(=O)Nc2ccc(O)cc2)C(C)(C)CCC1=O [4-oxo-N-(4-hydroxyphenyl)retinamide]
sensitivity (cell viability, MTT) of serum-deprived quiescent versus proliferating HL60 cells (HL60 cells [1]): more sensitive
apoptosis of CD34+CD38+ AML progenitor cells [2]: dose-dependent manner
apoptosis of CD34+CD38− AML stem cells [3]: dose-dependent manner

Nc1ccn([C@@H]2O[C@H](CO)[C@@H](O)[C@@H]2O)c(=O)n1 [Ara-C, cytosine arabinoside]
change in MTP (HL60 cells [4]): little change in MTP
dose alone required for growth inhibition rate of 65.47% (U937 [5]): 0.091 µM
apoptosis rate (U937 [6]): ~5%

CC(=O)[C@]1(O)Cc2c(O)c3c(c(O)c2[C@@H](O[C@H]2C[C@H](N)[C@H](O)[C@H](C)O2)C1)C(=O)c1ccccc1C3=O [IDA, idarubicin]
apoptosis rate (HL60 cells [7]; proliferating HL60 cells): 88.7%
apoptosis rate (HL60 cells [7]; quiescent HL60 cells): 29.1%
change in MTP (HL60 cells [4]): little change in MTP

CC(C)C[C@@H](C=O)NC(=O)[C@H](CC(C)C)NC(=O)[C@H](CC(C)C)NC(=O)OCc1ccccc1 [MG132, N-[(phenyl-methoxy)-carbonyl]-L-leucyl-N-[(1S)-1-formyl-3-methylbutyl]-L-Leucinamide] (Cbz-Leu-Leu-Leu-aldehyde)
apoptosis rate (K562): 2.51%
apoptosis rate (U937 [6]): ~5%

COc1ccc2cc1Oc1ccc(cc1)C[C@H]1c3cc(c(OC)cc3CCN1C)Oc1c(OC)c(OC)cc3c1[C@H](C2)N(C)CC3 [Tet, tetrandrine]
apoptosis (MKN45): 15.8%

Cc1ccc(NC(=O)c2ccc(CN3CCN(C)CC3)cc2)cc1Nc1nccc(-c2cccnc2)n1 [imatinib, 4-[(4-methylpiperazin-1-yl)methyl]-N-[4-methyl-3-[(4-(3-pyridinyl)-pyrimidin-2-yl)amino]phenyl]benzamide]
apoptosis rate (K562): 12.8%
GFU-GEMM formed by the more primitive progenitor cells (CML CD34+ cells): could be detected
complete cytogenetic response (CCR) (patients with CML): ~87%

O=C1O[C@H]([C@@H](O)CO)C([O-])=C1O.[Na+] [vitamin C, ascorbic acid sodium salt]
effect on fenretinide-induced apoptosis (NB4 cells): completely abrogated
